Laboratory results published in PMC6019134, “1,2,6-Thiadiazinones as Novel Narrow Spectrum Calcium/Calmodulin-Dependent Protein Kinase Kinase 2 (CaMKK2) Inhibitors” (Molecules : A Journal of Synthetic Chemistry and Natural …, 2018).
Entries after “also recorded” stand apart in the source; their conditions may differ.

Legend:
Type in all cases: binding
BMXA = target: T1, BMXA (Homo sapiens, UniProt P51813); experiment: DSF thermal shift, kinase panel; conditions: 10 μM compound
T1 construct: purchased in-house (home-made panel, SGC-style construct names)
T1 sequence (P51813 1-675): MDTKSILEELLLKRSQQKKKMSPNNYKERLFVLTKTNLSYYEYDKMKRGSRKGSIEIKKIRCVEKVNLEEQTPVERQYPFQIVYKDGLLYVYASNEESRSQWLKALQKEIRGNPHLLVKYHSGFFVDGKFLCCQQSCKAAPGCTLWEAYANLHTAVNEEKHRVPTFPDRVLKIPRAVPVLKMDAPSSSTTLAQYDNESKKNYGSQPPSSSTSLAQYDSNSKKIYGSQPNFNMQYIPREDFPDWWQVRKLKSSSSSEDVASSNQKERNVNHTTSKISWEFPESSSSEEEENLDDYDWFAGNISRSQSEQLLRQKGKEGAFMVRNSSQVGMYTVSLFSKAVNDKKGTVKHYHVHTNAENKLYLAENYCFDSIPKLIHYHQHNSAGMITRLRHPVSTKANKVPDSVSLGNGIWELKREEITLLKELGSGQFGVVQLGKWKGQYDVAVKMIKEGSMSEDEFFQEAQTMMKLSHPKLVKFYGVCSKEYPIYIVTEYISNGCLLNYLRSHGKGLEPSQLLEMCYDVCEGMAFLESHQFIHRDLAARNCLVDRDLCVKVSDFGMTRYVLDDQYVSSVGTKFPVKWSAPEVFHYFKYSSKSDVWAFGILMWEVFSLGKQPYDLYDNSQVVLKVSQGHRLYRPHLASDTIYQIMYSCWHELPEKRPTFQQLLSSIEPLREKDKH
Summary of the method: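 Thermal denaturation of 1 µM kinase with 10 µM compound present, monitored by dye fluorescence across 25–95 °C; shift in Tm relative to 0.2% DMSO reference.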

[1] = system: panel of 46 protein kinases; experiment: DSF kinome selectivity panel, hits over 2 °C; conditions: 10 μM compound, average of 4 experiments; for Number of Kinases Hit DSF > 2 °C: of 46 kinases; for Kinases Hit DSF > 2 °C: names of the kinases hit, 46 kinases
Experimental: The corresponding dianilino-TDZs (1–5) were tested on a panel of 46 protein kinases representing the major kinome branches at a concentration of 10 μM using a Differential Scanning Fluorimetry (DSF). Only analogues 1–3 induced a significant (>2 °C) thermal shift when incubated with a subset of the proteins (Table 1).
Kinase selectivity assay—A home-made kinase panel was generated for the following enzymes: AAK1, BMP2K, BMX, BRAF, CAMK1D, CAMK1G, CAMKK1, CAMKK2B, CDC42BPA, CDK2, CDKL1, CHEK2, CLK1, CSNK1G1, CSNK1G3, CSNK2A1, DYRK1A, DYRK2A, EPHA2, GAK, GSG2, MAPK1, MAP2K7, MAPK14B, MAPK3, PHKG2, PIM1, PLK1, PKMYT1, PRPF4B, RPS6KA1A, RPS6KA5A, RPS6KA6A, SLK, SRPK1, SRPK2, STK3, STK6, STK10, STK17A, STK24, STK38L, TRIB2, TTK, VRK1 and VRK2. Proteins were produced in E. coli, purified in a Ni-chelate column, followed by overnight digestion using TEV protease (made in house with an N-terminal 6xHis tag) and dialysis to remove imidazole. To clear samples of uncleaved proteins and the TEV protease, samples were loaded on new Ni-chelate columns. The flow through was collected, concentrated and loaded to a HiLoad Superdex 200 16/600 column (GE Healthcare, Chicago, IL, USA) for final polishing and buffer exchange.
Starting from 100 µM protein stocks, our kinase panel enzymes were diluted to 1 µM in buffer 100 mM K2HPO4 pH 7.5 containing 150 mM NaCl, 10% glycerol and 5X dye (Applied Biosystems catalogue 4461806). The protein/dye mixture was transferred to a 384-well PCR microplate having 20 µL per well. Compounds in DMSO at 10 mM concentration were added in 20 nL volume, using a liquid handling device setup with a pin head, to make 10 µM compound concentration in the assay plate.
Protein thermal shift data was measured in a qPCR instrument (Applied Biosystems QuantStudio 6) programmed to equilibrate the plate at 25 °C for 5 min followed by ramping the temperature to 95 °C at a rate of 0.05 °C/s. Data was processed using Protein Thermal shift software (Applied Biosystems) by fitting experimental curves to a Boltzmann function to calculate differential thermal shifts (dTm) referenced to protein/dye in 0.2% DMSO.

[2] = target: T2, CAMKK2 kinase domain (132–470) (Homo sapiens, UniProt Q96RR4); experiment: CaMKK2B TR-FRET tracer displacement assay; conditions: CaMKK2, displacement of tracer 236, average of 2 experiments
T2 construct: CAMKK2 kinase domain (132–470) was cloned in a pNIC-Bio2 vector; 10xHis tag followed by a TEV site (N, cleaved yes); made in house; host or cells: E. coli BL21(DE3)-R3-BirA
T2 sequence (Q96RR4 132-470): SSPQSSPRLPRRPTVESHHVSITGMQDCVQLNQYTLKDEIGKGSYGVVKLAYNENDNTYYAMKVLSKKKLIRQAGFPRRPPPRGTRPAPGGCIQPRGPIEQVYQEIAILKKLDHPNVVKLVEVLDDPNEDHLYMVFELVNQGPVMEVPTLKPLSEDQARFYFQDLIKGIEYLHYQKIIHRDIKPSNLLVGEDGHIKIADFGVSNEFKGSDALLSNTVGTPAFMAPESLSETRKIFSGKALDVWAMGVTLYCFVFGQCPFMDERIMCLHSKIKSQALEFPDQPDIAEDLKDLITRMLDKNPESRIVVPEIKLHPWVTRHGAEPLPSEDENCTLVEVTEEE
Description: To more accurately determine the relative changes in potency of the TDZ analogues and to enable measurement of accurate IC50^’s, we developed a Time-Resolved Fluorescence Resonance Energy Transfer (TR-FRET) assay. The TR-FRET tracer displacement assays were generated using a protocol derived from the Lanthascreen binding assays (ThermoFisher Scientific, Waltham, MA, USA) [21].

CNC(=O)c1ccccc1Nc1nsnc(Nc2ccc(N3CCOCC3)cc2)c1=O [Compound 5, N-Methyl-2-({5-[(4-morpholinophenyl)amino]-4-oxo-4H-1,2,6-thiadiazin-3-yl}amino)benzamide]
ΔTm at 10 µM (BMXA): 0 °C
Number of Kinases Hit DSF > 2 °C [1]: 0

CNC(=O)c1ccccc1Nc1nsnc(Nc2cccc(CS(C)(=O)=O)c2)c1=O [Compound 4, N-Methyl-2-([5-({3-[(methylsulfonyl)methyl]phenyl}amino)-4-oxo-4H-1,2,6-thiadiazin-3-yl]-amino}-benzamide]
ΔTm at 10 µM (BMXA): 0 °C
Number of Kinases Hit DSF > 2 °C [1]: 0

Cc1ccc(Nc2nsnc(Nc3cccc(C(N)=O)c3)c2=O)cc1O [Compound 1, 3-({5-[(3-Hydroxy-4-methylphenyl)amino]-4-oxo-4H-1,2,6-thiadiazin-3-yl}amino)benzamide]
IC50 [2]: > 50 µM
ΔTm at 10 µM (BMXA): 0.1 °C
Kinases Hit DSF > 2 °C [1]: TRIB2
Number of Kinases Hit DSF > 2 °C [1]: 1

Cc1ccc(Nc2nsnc(Nc3ccc(C(N)=O)cc3)c2=O)cc1O [Compound 2, 4-({5-[(3-Hydroxy-4-methylphenyl)amino]-4-oxo-4H-1,2,6-thiadiazin-3-yl}amino)benzamide]
IC50 [2]: > 50 µM
ΔTm at 10 µM (BMXA): -0.1 °C
Kinases Hit DSF > 2 °C [1]: CAMK1D/G/K1/K2B, CDC42BPA, CDK2; also recorded: CHEK2, DYRK2, MAP2K7, PHKG2; also recorded: PIM1, PKMYT1, RPSKA6, STK3, STK17, TTK
Number of Kinases Hit DSF > 2 °C [1]: 16

Cc1ccc(Nc2nsnc(Nc3ccc4c(c3)CS(=O)(=O)C4)c2=O)cc1O [Compound 3, 3-[(2,2-Dioxido-1,3-dihydrobenzo[c]thiophen-5-yl)amino]-5-[(3-hydroxy-4-methylphenyl)amino]-4H-1,2,6-thiadiazin-4-one]
IC50 [2]: 34 µM
ΔTm at 10 µM (BMXA): 0 °C
Kinases Hit DSF > 2 °C [1]: STK10, TRIB2, TTK; also recorded: CAMK1G/2B, CDC42BPA,; also recorded: CLK1, MAP2K7, PIM1,
Number of Kinases Hit DSF > 2 °C [1]: 9
